Six compounds from ChEMBL document CHEMBL2406948, “Skeletal rearrangement of seven-membered iminosugars: synthesis of (-)-adenophorine, (-)-1-epi-adenophorine and derivatives and evaluation as glycosidase inhibitors” (Bioorg Med Chem, 2013) can be followed below.

Experiment [1] has as its target T1, Glucosylceramidase (Bos taurus) (UniProt Q2KHZ8).
T1 sequence (whole entry): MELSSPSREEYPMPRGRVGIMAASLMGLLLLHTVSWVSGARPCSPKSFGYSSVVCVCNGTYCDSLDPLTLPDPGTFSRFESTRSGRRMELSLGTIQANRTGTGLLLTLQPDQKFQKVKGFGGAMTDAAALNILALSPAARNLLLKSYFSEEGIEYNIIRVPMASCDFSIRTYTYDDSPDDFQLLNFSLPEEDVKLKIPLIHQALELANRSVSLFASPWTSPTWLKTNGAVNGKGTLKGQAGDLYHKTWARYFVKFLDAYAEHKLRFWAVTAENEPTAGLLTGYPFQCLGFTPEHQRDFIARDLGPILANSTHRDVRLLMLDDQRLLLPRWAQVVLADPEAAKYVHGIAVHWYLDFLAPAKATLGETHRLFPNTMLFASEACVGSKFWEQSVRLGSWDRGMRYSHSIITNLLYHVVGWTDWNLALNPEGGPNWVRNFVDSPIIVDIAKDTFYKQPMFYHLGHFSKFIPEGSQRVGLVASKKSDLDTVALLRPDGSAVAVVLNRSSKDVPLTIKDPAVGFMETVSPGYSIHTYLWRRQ
Description: Inhibition of bovine liver beta-glucosidase at 1000 uM.

A further experiment deals with Penicillium decumbens. Briefly: Inhibition of Penicillium decumbens alpha-L-rhamnosidase at 1000 uM.
Experiment [2] deals with T2, Tissue alpha-L-fucosidase (Bos taurus, UniProt Q2KIM0).
T2 sequence (Q2KIM0 whole entry): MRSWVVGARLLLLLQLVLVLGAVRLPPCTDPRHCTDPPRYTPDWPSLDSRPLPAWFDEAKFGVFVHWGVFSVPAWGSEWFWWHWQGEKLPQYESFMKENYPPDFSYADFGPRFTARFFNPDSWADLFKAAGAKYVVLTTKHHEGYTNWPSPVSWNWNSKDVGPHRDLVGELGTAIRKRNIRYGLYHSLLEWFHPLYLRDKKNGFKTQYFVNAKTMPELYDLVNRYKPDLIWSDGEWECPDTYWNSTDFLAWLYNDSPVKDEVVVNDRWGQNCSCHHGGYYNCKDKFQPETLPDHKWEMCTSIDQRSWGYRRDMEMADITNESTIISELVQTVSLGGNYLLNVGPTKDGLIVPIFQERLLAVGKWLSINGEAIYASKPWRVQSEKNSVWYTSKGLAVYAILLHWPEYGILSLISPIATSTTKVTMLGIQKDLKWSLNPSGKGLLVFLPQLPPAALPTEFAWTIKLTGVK
Description: Inhibition of bovine kidney alpha-L-fucosidase.

For another experiment, the system named is Escherichia coli. Description: Inhibition of Escherichia coli beta-glucuronidase at 1000 uM.
The target in experiment [3] is T3, Beta-galactosidase (Bos taurus) (UniProt Q58D55).
T3 sequence (whole entry): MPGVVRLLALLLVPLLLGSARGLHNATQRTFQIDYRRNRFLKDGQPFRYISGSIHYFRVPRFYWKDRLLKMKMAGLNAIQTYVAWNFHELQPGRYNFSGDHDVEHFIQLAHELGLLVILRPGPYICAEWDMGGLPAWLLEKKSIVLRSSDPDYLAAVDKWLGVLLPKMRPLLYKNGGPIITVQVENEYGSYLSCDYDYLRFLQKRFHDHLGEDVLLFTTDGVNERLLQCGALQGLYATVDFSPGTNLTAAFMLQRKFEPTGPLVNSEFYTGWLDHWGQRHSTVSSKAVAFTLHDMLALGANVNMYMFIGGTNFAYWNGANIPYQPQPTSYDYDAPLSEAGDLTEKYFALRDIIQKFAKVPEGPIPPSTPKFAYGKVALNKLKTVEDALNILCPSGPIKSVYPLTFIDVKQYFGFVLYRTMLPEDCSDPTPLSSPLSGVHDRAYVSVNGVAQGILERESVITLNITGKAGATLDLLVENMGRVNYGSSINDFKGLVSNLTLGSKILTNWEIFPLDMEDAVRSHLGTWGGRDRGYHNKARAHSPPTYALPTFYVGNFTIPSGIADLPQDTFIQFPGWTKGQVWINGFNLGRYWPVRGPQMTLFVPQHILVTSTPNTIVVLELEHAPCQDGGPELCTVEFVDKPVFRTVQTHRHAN
Description: Inhibition of bovine liver beta-galactosidase at 1000 uM.

Experiment [4] in a line: Inhibition of Escherichia coli beta-glucuronidase.
In a further experiment the target is T4, Beta-galactosidase (Bos taurus, UniProt Q58D55).
T4 sequence (Q58D55 whole entry): T3 sequence (whole entry)
Description: Inhibition of bovine liver beta-galactosidase.

The nature of experiment [5]: Inhibition of Penicillium decumbens alpha-L-rhamnosidase.
In experiment [6] the target is T5, Tissue alpha-L-fucosidase (Bos taurus) (UniProt Q2KIM0).
T5 sequence (whole entry): T2 sequence (Q2KIM0 whole entry)
Briefly: Inhibition of bovine kidney alpha-L-fucosidase at 1000 uM.

The inhibition is the change of the read-out against control, counted positive when it falls. Usually IC50 stands for the concentration that inhibits the measured activity by half. A higher IC50 goes with lower potency.

In the case of `CC[C@@H]1N[C@@H](CO)[C@@H](O)[C@H](O)[C@H]1O`, the inhibition in [1] came to 12.6%; in the experiment on Penicillium decumbens, 37.7%; in the experiment on Escherichia coli, 7.2%; in experiment [3] it was 6.5%. For the same compound, the IC50 in [2] came out at 72 µM.
`CCC[C@@H]1N[C@@H](CO)[C@@H](O)[C@H](O)[C@H]1O`: the inhibition was 13.2% in experiment [1], 13% in the experiment on Penicillium decumbens and 26.8% in [3]. For the same compound, the figures for the IC50 in [2] and in experiment [4] were 713 µM and 586 µM, respectively.
Turning to `CC[C@H]1N[C@@H](CO)[C@@H](O)[C@H](O)[C@H]1O`, the inhibition worked out at 32.8% in [1], 2.4% with Penicillium decumbens, 11% in the experiment with Escherichia coli and 20.3% in [3]. The compound also displayed an IC50 in experiment [2] of 208 µM.
Regarding `CC[C@@H]1NC[C@@H](O)[C@@H](O)[C@H](O)[C@H]1O`, the IC50 came out at 526 µM at Beta-galactosidase and 231 µM in experiment [5]. In addition, the inhibition in the experiment on Escherichia coli is 18.1%; in [6], 37.2%.
As for `CC[C@H]1NC[C@@H](O)[C@@H](O)[C@H](O)[C@H]1O`, the inhibition in experiment [1] came out at 24.6%; in the experiment with Penicillium decumbens, 5.3%; in the experiment on Escherichia coli, 3.1%; in [3] it was 12.1%; in experiment [6] it was 36.7%.
Taken in the same sequence, the figures for `CC[C@@H]1N[C@H](CC)[C@H](O)[C@@H](O)[C@@H]1O` were 21.6%, 0%, 12.9%, 9.7% and 0%.
